Laboratory results reported in EP4578856A1, “HETEROCYCLIC COMPOUND” (Ubience Inc., priority 2022, dated 2024).

Biological target: ROCK2 protein (Homo sapiens, UniProt O75116)
Assay: Degradation inducing activity of ROCK2 protein in HUVEC cells, Western blotting (Simple Western JESS)
Type: cell-based
Design: endogenous in cells; host or cells: HUVEC (ATCC CRL-1730)
Conditions: HUVEC, 24 h; for inhibition at 1 µM: degradation rate at 1 µM; for inhibition at 10 µM: degradation rate at 10 µM
Method: In vitro degradation inducing activity of ROCK2 protein of compounds of Examples was evaluated by Western Blotting (WB).
By a test compound, 10 mM DMSO solution was prepared, which was used as a 10 µM test compound solution. Further, the solution was diluted 10-fold with DMSO to prepare a 1 mM solution, which was used as a 1 µM test compound solution.
HUVEC cells (ATCC: CRL-1730, Lot: 70041472) were cultured in F-12K medium supplemented with 10% FBS, 0.1 mg/mL heparin, […] Endothelial Cell Growth Supplement (ECGS, Corning), and 1% Penicillin/Streptomycin. The HUVEC cells seeded in a 24 well plate at 50,000 cells/well/1 mL were cultured for 24 hours, and then 1 µL of DMSO or a test compound solution was added thereto and treatment was performed for 24 hours. Cells were harvested and lysed for 20 minutes on ice using lysis buffer (Cell Signaling Technology, Cat#9803) supplemented with protease inhibitor cocktail (Sigma, Cat#P8340; Roche, Cat#P11873580001), and phosphatase inhibitor cocktail (Sigma, Cat#P5726, P0044). The lysate was sonicated (15 seconds, amplitude 30%, 1 cycle) and then centrifuged at 12500 rpm for 15 minutes at 4°C. The protein concentration was determined by BCA assay kit (Thermo Fisher Scientific, Cat#23225).
The western blotting was performed using Simple Western JESS (protein simple). A cell lysis sample (protein amount; about 1.06 µg) was loaded on a plate of Simple Western JESS, and the expression level of ROCK2 protein was detected using a 12-230 kDa Wes Separation Module (Protein simple, Cat#SM-WO04), an Anti-Rabbit Detection Module for Wes (Protein simple, Cat#DM-001), and a Total Protein Detection Module for Wes (Protein simple, Cat#DM-TP01). As the primary antibody, a material obtained by diluting ROCK2 (D1B1) Rabbit mAb (Cell Signaling Technology, Cat#9029) at 1:10 was used, and as the secondary antibody, a material obtained by diluting HRP-labeled anti-rabbit IgG antibody (Cell Signaling Technology, Cat#7074S) at 1:100 was used. The expression level of the target protein was standardized using the total protein amount loaded as a reference. The standardized expression level data of the control (DMSO) was taken as 100%, and the degradation rate (%) was calculated from the average standardized expression level data of the test compound. All analysis steps, such as data detection and analysis, are fully automated.
With respect to the ROCK2 protein degradation rate of the test compound, the protein degradation rates (%) at the evaluation concentrations were set to A ≥ 75%, 75% > B ≥ 50%, 50% > C ≥ 25%, and D < 25%, and are shown in Table 7.

Sequence of ROCK2 protein (O75116 whole entry): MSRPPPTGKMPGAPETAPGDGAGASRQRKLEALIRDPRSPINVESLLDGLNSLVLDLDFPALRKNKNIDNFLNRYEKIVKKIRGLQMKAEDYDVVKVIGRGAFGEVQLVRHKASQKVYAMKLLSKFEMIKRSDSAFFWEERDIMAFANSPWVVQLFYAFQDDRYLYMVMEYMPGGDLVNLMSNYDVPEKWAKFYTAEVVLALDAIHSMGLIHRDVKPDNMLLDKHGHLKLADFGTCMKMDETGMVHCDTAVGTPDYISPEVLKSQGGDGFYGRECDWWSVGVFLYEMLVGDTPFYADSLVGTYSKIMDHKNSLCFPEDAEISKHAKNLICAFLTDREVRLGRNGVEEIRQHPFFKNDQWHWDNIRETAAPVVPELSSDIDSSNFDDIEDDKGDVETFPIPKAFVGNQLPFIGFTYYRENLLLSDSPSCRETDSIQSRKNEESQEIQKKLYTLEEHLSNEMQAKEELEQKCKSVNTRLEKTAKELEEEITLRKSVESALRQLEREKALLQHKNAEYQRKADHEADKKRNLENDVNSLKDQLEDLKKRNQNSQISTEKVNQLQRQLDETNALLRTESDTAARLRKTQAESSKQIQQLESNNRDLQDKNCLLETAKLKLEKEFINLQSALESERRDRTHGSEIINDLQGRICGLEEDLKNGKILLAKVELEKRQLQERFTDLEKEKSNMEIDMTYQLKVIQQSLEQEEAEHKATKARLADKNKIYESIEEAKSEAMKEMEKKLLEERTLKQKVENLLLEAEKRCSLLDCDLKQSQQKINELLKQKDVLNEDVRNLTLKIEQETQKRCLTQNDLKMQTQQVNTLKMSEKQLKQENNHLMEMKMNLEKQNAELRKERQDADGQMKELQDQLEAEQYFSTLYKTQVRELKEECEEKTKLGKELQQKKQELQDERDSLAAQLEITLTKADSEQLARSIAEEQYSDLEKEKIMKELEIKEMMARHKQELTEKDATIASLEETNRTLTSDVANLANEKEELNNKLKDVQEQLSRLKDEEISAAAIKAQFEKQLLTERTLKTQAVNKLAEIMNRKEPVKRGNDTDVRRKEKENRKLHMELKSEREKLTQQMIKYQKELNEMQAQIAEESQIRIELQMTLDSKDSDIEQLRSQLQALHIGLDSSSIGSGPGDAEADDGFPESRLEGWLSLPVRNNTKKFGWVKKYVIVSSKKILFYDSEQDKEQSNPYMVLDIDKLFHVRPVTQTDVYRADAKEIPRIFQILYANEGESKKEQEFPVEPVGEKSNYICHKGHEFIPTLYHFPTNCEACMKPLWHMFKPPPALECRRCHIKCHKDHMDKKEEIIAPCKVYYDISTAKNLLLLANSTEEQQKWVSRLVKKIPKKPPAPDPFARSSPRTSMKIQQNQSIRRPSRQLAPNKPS

Row | Structure (SMILES) | inhibition at 1 µM [%] | inhibition at 10 µM [%]
1 | C[C@@H]1CN(CC(=O)N2CC(C)(C)c3ncc(Cc4ccc(F)cc4)cc32)[C@@H](CN(C)CCOCCOCCOCCOCCN[C@H](C)c2ccc(C(=O)Nc3ccncc3)cc2)CN1 [Example 4, 4-((R)-1-((2R,5R)-1-(2-(6-(4-Fluorobenzyl)-3,3-dimethyl-2,3-dihydro-1H-pyrrolo[3,2-b]pyridin-1-yl)-2-oxoethyl)-5-methylpiperazin-2-yl)-2-methyl-5,8,11,14-tetraoxa-2,17-diazanonadecan-18-yl)-N-(pyridin-4-yl)benzamide] | ≥ 75 | ≥ 75
2 | COC[C@H]1CN[C@H](C)CN1CC(=O)N1CC(C)(C)c2nc(CN(C)CCOCCOCCNC[C@@H](C(=O)Nc3ccc4cnccc4c3)c3ccccc3)c(Cc3ccc(F)cc3)cc21 [Example 37, (S)-1-(6-(4-Fluorobenzyl)-1-(2-((2R,5R)-2-(methoxymethyl)-5-methylpiperazin-1-yl)acetyl)-3,3-dimethyl-2,3-dihydro-1H-pyrrolo[3,2-b]pyridin-5-yl)-N-(isoquinolin-6-yl)-2-methyl-13-phenyl-5,8-dioxa-2,11-diazatetradecan-14-amide] | < 25 | ≥ 75
3 | COC[C@H]1CN[C@H](C)CN1CC(=O)N1CC(C)(C)c2ncc(Cc3cccc(OCCOCCOCCOCCOCCOCCOCCOCCN[C@H](C)c4ccc(C(=O)Nc5ccncc5)cc4)c3)cc21 [Example 49, 4-((R)-26-(3-((1-(2-((2R,5R)-2-(Methoxymethyl)-5-methylpiperazin-1-yl)acetyl)-3,3-dimethyl-2,3-dihydro-1H-pyrrolo[3,2-b]pyridin-6-yl)methyl)phenoxy)-6,9,12,15,18,21,24-heptaoxa-3-azahexacosan-2-yl)-N-(pyridin-4-yl)benzamide] | ≥ 75 | 50 to 75

The remaining lines, values ahead:

Row | inhibition at 1 µM [%] | inhibition at 10 µM [%] | Structure (SMILES)
4 | 50 to 75 | ≥ 75 | C[C@@H]1CN(CC(=O)N2CC(C)(C)c3ncc(Cc4ccc(F)cc4)cc32)[C@@H](CN(C)CCOCCOCCOCCOCCN[C@H](Cc2cccc(F)c2)C(=O)Nc2ccc(-c3ccncc3)cc2)CN1 [Example 11, (R)-18-(3-Fluorobenzyl)-1-((2R,5R)-1-(2-(6-(4-fluorobenzyl)-3,3-dimethyl-2,3-dihydro-1H-pyrrolo[3,2-b]pyridin-1-yl)-2-oxoethyl)-5-methylpiperazin-2-yl)-2-methyl-N-(4-(pyridin-4-yl)phenyl)-5,8,11,14-tetraoxa-2,17-diazanonadecan-19-amide]
5 | < 25 | ≥ 75 | COC[C@H]1CN[C@H](C)CN1CC(=O)N1CC(C)(C)c2ncc(Cc3ccccc3OCCOCCNC[C@@H](C(=O)Nc3ccc4cnccc4c3)c3ccccc3)cc21 [Example 78, (S)-N-(Isoquinolin-6-yl)-3-((2-(2-(2-((1-(2-((2R,5R)-2-(methoxymethyl)-5-methylpiperazin-1-yl)acetyl)-3,3-dimethyl-2,3-dihydro-1H-pyrrolo[3,2-b]pyridin-6-yl)methyl)phenoxy)ethoxy)ethyl)amino)-2-phenylpropanamide]
6 | < 25 | ≥ 75 | COC[C@H]1CN[C@H](C)CN1CC(=O)N1CC(C)(C)c2nc(CN(C)CCOCCOCCOCCOCCOCCOCCN[C@H](Cc3cccc(F)c3)C(=O)Nc3ccc(-c4ccncc4)cc3)c(Cc3ccc(F)cc3)cc21 [Example 34, (R)-24-(3-Fluorobenzyl)-1-(6-(4-fluorobenzyl)-1-(2-((2R,5R)-2-(methoxymethyl)-5-methylpiperazin-1-yl)acetyl)-3,3-dimethyl-2,3-dihydro-1H-pyrrolo[3,2-b]pyridin-5-yl)-2-methyl-N-(4-(pyridin-4-yl)phenyl)-5,8,11,14,17,20-hexaoxa-2,23-diazapentacosan-25-amide]
